What was measured:
Cbl-b [1] = target: T1, Cbl-b (Homo sapiens (Human), UniProt Q13191); assay: Cbl-b displacement assay (Cbl-b inhibition assay), Biological Example 1; format: binding
Procedure, shortened: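 Avitag-biotinylated human Cbl-b (residues 36–427) at 0.5 nM ("High") or 0.125 nM ("Low") pre-incubated 1 h with compound (1% DMSO) in HEPES pH 7.5/NaCl/Triton/BSA/TCEP, RT. Then 1 h with 150 nM BODIPY FL inhibitor probe (~EC40) plus 2 nM streptavidin-Tb. TR-FRET read at 520/620 nm for probe displacement.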

Cbl-b [2] = target: T1, Cbl-b; assay: Cbl-b displacement assay (Cbl-b inhibition assay), Biological Example 8; format: binding; conditions: Table 4
Experimental: (§1) Candidate compounds were evaluated for their ability to bind and inhibit Cbl-b, an E3 ubiquitin-protein ligase, as evidenced by their ability to displace a fluorophore-labeled probe bound to Cbl-b.
(§2) The ability of candidate compounds to displace a known inhibitor and thereby inhibit Cbl-b activity was measured by monitoring the interaction of Cbl-b with a fluorophore-labeled probe in the presence of the candidate compound. A truncated variant of Cbl-b (UniProt number Q13191) containing residues 36-427 and an Avitag at its N-terminus was co-expressed with BirA biotin ligase and purified using a standard protocol (see Dou et al., Nature Structural and Molecular Biology 8: 982-987, 2013; Avidity LLC).
Fluorescently-labeled inhibitor probe was synthesized and tagged with BODIPY FL. Cbl-b displacement assays were performed in a 384-well plate at room temperature in a […] by pre-incubating 0.5 nM Cbl-b or 0.125 nM Cbl-b (final concentration, indicated as “High” and “Low,” respectively) in an assay buffer containing 20 mM HEPES pH 7.5, 150 mM NaCl, 0.01% Triton X-100, 0.01% BSA, and 0.5 mM TCEP in the presence of a candidate compound in 1% DMSO (final concentration) for 1 hour. After incubation in the presence of the candidate compound, the plate was incubated for an additional one hour in the presence of an approximate EC40 binding saturation consisting of 150 nM fluorescently-labeled inhibitor probe and 2 nM Streptavidin-Terbium (Cisbio) (final concentrations). Following the one hour incubation, the plates were read for TR-FRET signal at […] using an Envision plate reader (Perkin Elmer).
(§3) The resulting data for the Cbl-b activity assays were analyzed using standard methods to determine the IC50 values for the tested compounds.

Cbl-b [3] = target: T1, Cbl-b; assay: Cbl-b displacement assay (Cbl-b inhibition assay), Biological Example 12; format: binding; conditions: Table 7
Experimental: as §1, §2
Fluorescently-labeled inhibitor probe was synthesized and tagged with BODIPY FL. Cbl-b displacement assays were performed in a 384-well plate at room temperature in a […] by pre-incubating 0.5 nM Cbl-b or 0.125 nM Cbl-b (final concentration, indicated as “High” and “Low,” respectively) in an assay buffer containing 20 mM HEPES pH 7.5, 150 mM NaCl, 0.01% Triton X-100, 0.01% BSA and 0.5 mM TCEP in the presence of a candidate compound in 1% DMSO (final concentration) for one hour. After incubation in the presence of the candidate compound, the plate was incubated for an additional one hour in the presence of an approximate EC40 binding saturation consisting of 150 nM fluorescently-labeled inhibitor probe and 2 nM Streptavidin-Terbium (Cisbio) (final concentrations). Following the one hour incubation, the plates were read for TR-FRET signal at […] using an Envision plate reader (Perkin Elmer).
as §3

[4] = system: primary human total T-cells; assay: T-cell activation, IL-2 secretion, Biological Example 2; format: cell-based; conditions: 48 hours, fold change over baseline; for fold induction at 0.3 µM: 0.3 μM inhibitor; for fold induction at 1 µM: 1 μM inhibitor; for fold induction at 3 µM: 3 μM inhibitor
[5] = system: primary human total T-cells; assay: T-cell activation, CD25 surface staining, Biological Example 2; format: cell-based; conditions: 48 hours, fold change over baseline; for fold induction at 0.3 µM: 0.3 μM inhibitor; for fold induction at 1 µM: 1 μM inhibitor; for fold induction at 3 µM: 3 μM inhibitor
[6] = system: primary human total T-cells; assay: T-cell activation, IL-2 secretion, Biological Example 9; format: cell-based; conditions: 48 hours, fold change over baseline, Table 5; for IL-2 secretion CD3/CD28 0.3 μM / IL-2 secretion CD3/CD28 1 μM: anti-CD3 and anti-CD28 co-stimulation; for IL-2 secretion CD3/CD28 0.3 μM: 0.3 μM inhibitor; for IL-2 secretion CD3/CD28 1 μM / IL-2 secretion CD3 1 μM: 1 μM inhibitor; for IL-2 secretion CD3 1 μM / IL-2 secretion CD3 3 μM: anti-CD3 stimulation alone; for IL-2 secretion CD3 3 μM: 3 μM inhibitor
[7] = system: primary human total T-cells; assay: T-cell activation, CD25 surface staining, Biological Example 9; format: cell-based; conditions: anti-CD3 and anti-CD28 co-stimulation, 48 hours, fold change over baseline, Table 5
[8] = system: primary human total T-cells; assay: T-cell activation, IL-2 secretion, Biological Example 13; format: cell-based; conditions: 48 hours, fold change over baseline, Table 8; for IL-2 secretion CD3/CD28 0.3 μM / IL-2 secretion CD3/CD28 1 μM: anti-CD3 and anti-CD28 co-stimulation; for IL-2 secretion CD3/CD28 0.3 μM: 0.3 μM inhibitor; for IL-2 secretion CD3/CD28 1 μM / IL-2 secretion CD3 1 μM: 1 μM inhibitor; for IL-2 secretion CD3 1 μM / IL-2 secretion CD3 3 μM: anti-CD3 stimulation alone; for IL-2 secretion CD3 3 μM: 3 μM inhibitor
[9] = system: primary human total T-cells; assay: T-cell activation, CD25 surface staining, Biological Example 13; format: cell-based; conditions: anti-CD3 and anti-CD28 co-stimulation, 48 hours, fold change over baseline, Table 8
[10] = 0.5 nM Cbl-b final concentration (High), read-out: Cbl-b IC50 (High)
[11] = anti-CD3 and anti-CD28 co-stimulation
[12] = anti-CD3 and anti-CD28 co-stimulation, read-out: IL-2 secretion CD3/CD28 1 μM
[13] = anti-CD3 stimulation alone, read-out: IL-2 secretion CD3 1 μM
[14] = anti-CD3 and anti-CD28 co-stimulation, read-out: CD25 staining CD3/CD28 1 μM
[15] = anti-CD3 stimulation alone, read-out: CD25 staining CD3 1 μM
[16] = 0.125 nM Cbl-b final concentration (Low), read-out: Cbl-b activity IC50 (Low)
[17] = 0.125 nM Cbl-b final concentration (Low), read-out: Cbl-b IC50 (Low)

T1 sequence (Q13191 36-427): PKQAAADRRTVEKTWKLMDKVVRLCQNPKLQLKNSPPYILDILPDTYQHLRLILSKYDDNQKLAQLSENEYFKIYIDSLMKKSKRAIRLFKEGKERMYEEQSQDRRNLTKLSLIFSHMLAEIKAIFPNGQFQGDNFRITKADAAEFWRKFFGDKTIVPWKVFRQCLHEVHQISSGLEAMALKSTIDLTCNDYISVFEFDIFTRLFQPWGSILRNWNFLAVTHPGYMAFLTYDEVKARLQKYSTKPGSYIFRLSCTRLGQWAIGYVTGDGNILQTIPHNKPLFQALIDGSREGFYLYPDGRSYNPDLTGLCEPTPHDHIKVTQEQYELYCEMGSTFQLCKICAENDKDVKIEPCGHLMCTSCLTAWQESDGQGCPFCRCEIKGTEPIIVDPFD

SMILES	fold induction at 0.3 µM [4, 11]	fold induction at 1 µM [4, 12]	fold induction at 1 µM [4, 13]	fold induction at 3 µM ([4]; anti-CD3 stimulation alone)	fold induction at 0.3 µM [5, 11]	fold induction at 1 µM [5, 14]	fold induction at 1 µM [5, 15]	fold induction at 3 µM ([5]; anti-CD3 stimulation alone)	IL-2 secretion CD3/CD28 0.3 μM [6]	IL-2 secretion CD3/CD28 1 μM [6]	IL-2 secretion CD3 1 μM [6]	IL-2 secretion CD3 3 μM [6]	IL-2 secretion CD3/CD28 0.3 μM [8]	IL-2 secretion CD3/CD28 1 μM [8]	IL-2 secretion CD3 1 μM [8]	IL-2 secretion CD3 3 μM [8]	IC50 (Cbl-b [1]; [16]) [nM]	IC50 (Cbl-b [2]; [17]) [nM]	IC50 (Cbl-b [3]; [17]) [nM]	further results
Cc1cc(C(=O)Nc2cccc([C@]3(Cc4nncn4C)C[C@@H](C#N)C3)c2)nc(C2CC2)n1 [Compound 1, N-(3-((1r,3r)-3-cyano-1-((4-methyl-4H-1,2,4-triazol-3-yl)methyl)cyclobutyl)phenyl)-2-cyclopropyl-6-methylpyrimidine-4-carboxamide]	≤ 15	≤ 15	< 0.4	< 0.4	1.24 to 1.39	1.24 to 1.39	1 to 1.15	1 to 1.15	C (C indicates <10 fold)	B (B indicates 10-15 fold)	B (B indicates 0.34-0.66 fold)	B (B indicates 0.34-0.66 fold)	C (C indicates ≤10 fold)	B (B indicates 11-15 fold)	B (B indicates 0.34-0.66 fold)	B (B indicates 0.34-0.66 fold)	–	–	–	IC50 (Cbl-b [1]; 0.5 nM Cbl-b final concentration (High), read-out: Cbl-b activity IC50 (High)): 2 to 5 nM; IC50 (Cbl-b [1]; read-out: IC50 values in the Cbl-b inhibition assay of Biological Example 1): 2 to 5 nM; IC50 (Cbl-b [2]; [10]): 1 to 5 nM; IC50 (Cbl-b [3]; [10]): 1 to 5 nM; CD25 staining CD3/CD28 0.3 μM ([7]; 0.3 μM inhibitor): B (B indicates 1.25-1.39 fold); CD25 staining CD3/CD28 1 μM ([7]; 1 μM inhibitor): B (B indicates 1.25-1.39 fold); CD25 staining CD3/CD28 0.3 μM ([9]; 0.3 μM inhibitor): B (B indicates 1.25-1.39 fold); CD25 staining CD3/CD28 1 μM ([9]; 1 μM inhibitor): B (B indicates 1.25-1.39 fold)
C[C@H]1CCCN(Cc2cc3c(c(C(F)(F)F)c2)CN(c2cccc([C@]4(Cc5nncn5C)C[C@@H](C#N)C4)c2)C3=O)C1 [Compound 19, (1R,3r)-3-((4-methyl-4H-1,2,4-triazol-3-yl)methyl)-3-(3-(6-(((S)-3-methylpiperidin-1-yl)methyl)-1-oxo-4-(trifluoromethyl)isoindolin-2-yl)phenyl)cyclobutane-1-carbonitrile]	> 20	> 20	> 0.85	> 0.85	> 1.39	> 1.39	> 1.15	> 1.15	A (A indicates >15 fold)	A (A indicates >15 fold)	A (A indicates >0.66 fold)	A (A indicates >0.66 fold)	A (A indicates >15 fold)	A (A indicates >15 fold)	A (A indicates >0.66 fold)	A (A indicates >0.66 fold)	< 1	< 1	< 1	–
Cn1cnnc1C[C@]1(c2cccc(N3Cc4c(cc(CN[C@H]5CCC(F)(F)C5)cc4C(F)(F)F)C3=O)c2)C[C@H](C#N)C1 [Compound 20, (1R3r)-3-(3-(6-((((S)-3,3-difluorocyclopentyl)amino)methyl)-1-oxo-4-(trifluoromethyl)isoindolin-2-yl)phenyl)-3-((4-methyl-4H-1,2,4-triazol-3-yl)methyl)cyclobutane-1-carbonitrile]	> 20	> 20	> 0.85	> 0.85	> 1.39	> 1.39	> 1.15	> 1.15	A (A indicates >15 fold)	A (A indicates >15 fold)	A (A indicates >0.66 fold)	A (A indicates >0.66 fold)	A (A indicates >15 fold)	A (A indicates >15 fold)	A (A indicates >0.66 fold)	A (A indicates >0.66 fold)	< 1	< 1	< 1	–
Cn1cnnc1C[C@]1(c2cccc(N3Cc4c(cc(CN[C@@H]5CCC(F)(F)C5)cc4C(F)(F)F)C3=O)c2)C[C@H](C#N)C1 [Compound 21, (1R,3r)-3-(3-(6-((((R)-3,3-difluorocyclopentyl)amino)methyl)-1-oxo-4-(trifluoromethyl)isoindolin-2-yl)phenyl)-3-((4-methyl-4H-1,2,4-triazol-3-yl)methyl)cyclobutane-1-carbonitrile]	> 20	> 20	> 0.85	> 0.85	> 1.39	> 1.39	> 1.15	> 1.15	A (A indicates >15 fold)	A (A indicates >15 fold)	A (A indicates >0.66 fold)	A (A indicates >0.66 fold)	A (A indicates >15 fold)	A (A indicates >15 fold)	A (A indicates >0.66 fold)	A (A indicates >0.66 fold)	< 1	< 1	< 1	–
C[C@@H]1CN(Cc2cc(C(=O)Nc3cccc([C@]4(Cc5nncn5C)C[C@@H](C#N)C4)c3)nc(C3CC3)c2)CCO1 [Compound 56, N-(3-((1r,3R)-3-cyano-1-((4-methyl-4H-1,2,4-triazol-3-yl)methyl)cyclobutyl)phenyl)-6-cyclopropyl-4-(((R)-2-methylmorpholino)methyl)picolinamide]	15 to 20	> 20	0.4 to 0.85	0.4 to 0.85	≤ 1.24	≤ 1.24	1 to 1.15	1 to 1.15	A (A indicates >15 fold)	A (A indicates >15 fold)	A (A indicates >0.66 fold)	A (A indicates >0.66 fold)	A (A indicates >15 fold)	A (A indicates >15 fold)	A (A indicates >0.66 fold)	A (A indicates >0.66 fold)	< 1	< 1	< 1	–
